Measured values from patent publication US20090215752A1, “Compounds, preparation and therapeutic use thereof” (priority 2005, published 2009).

Tests used:
PDE1 = test: Selectivity: inhibition of PDE1 (radioenzymatic assay); format: biochemical, bovine; settings: Table 2
Experimental: (§1) 2.1.1. Isolation of Phosphodiesterases from Smooth Muscle A 3 g segment of bovine aortic media cut into pieces with scissors was homogenized with an ultra-turrax then a potter glass/glass homogenizer in 7 volumes by weight of buffer A containing a protease inhibitor cocktail (20 mM Tris-HCl, 0.25 M saccharose, 2 mM magnesium acetate, 1 mM dithiothreitol, 5 mM EGTA, 2000 U/ml aprotinin, 10 mg/l leupeptin and 10 mg/l soya trypsic inhibitor). The homogenizate was centrifuged at 105,000 g for 1 hour. The supernatant was loaded on a DEAE-Sephacel column (15×1.6 cm) pre-equilibrated with buffer B (buffer A without the saccharose, EGTA and protease inhibitors). The column was washed until there was no detectable absorption at 280 nm, then eluted with a linear gradient of NaCl (0-0.5 M) in buffer B. 3-ml fractions were collected and enzyme activity was determined under the conditions described hereinbelow to localize the different enzymes PDE1, PDE3, PDE4 and PDE5 which were aliquoted and frozen at −80° C. (Lugnier et al., Biochem. Phamacol., 1986, 35: 1746-1751). […]
(§2) Cyclic nucleotide phosphodiesterase activity was determined by a radioenzymatic method using tritium-labelled cyclic GMP or AMP (1 μM) as substrate (Lugnier et al., 1986). ^3H-labelled adenosine or guanosine monophosphate formed by hydrolysis of the radiolabelled cyclic nucleotide was then converted to ^3H-labelled adenosine or guanosine in a second reaction with one nucleotidase in excess. […] Nucleoside radioactivity was determined by liquid scintillation counting. […]
(§3) The activity of the compounds was evaluated on other phosphodiesterase isoforms, particularly basal state or calmodulin-activated PDE1 from vascular smooth muscle, PDE3, PDE4 and PDE5 from vascular smooth muscle. The results obtained are presented in Tables 1 and 2 hereinbelow and are expressed as the percentage inhibition of enzymatic activity produced by […] of the test compound.

PDE5 = biological target: T1, PDE5 (Bos taurus, UniProt Q28156); test: Selectivity: inhibition of PDE5 (radioenzymatic assay); format: biochemical, bovine; settings: Table 2
T1 construct: PDE3, PDE4 and PDE5 from vascular smooth muscle; from tissue; host or cells: bovine aortic media (vascular smooth muscle), DEAE-Sephacel fraction
Experimental: as §1, §2, §3

[1] = tested on: σ (non-selective) receptors; test: Sigma receptors binding, non-selective ([3H]DTG); settings: [3H]DTG 8 nM, rat cerebral cortex
Experimental: The sigma receptors were isolated from rat cerebral cortex according to the method described in Shirayama et al., 1993, p-Chlorophenylalanine-reversible reduction of s binding sites by chronic imipramine treatment in rat brain, Eur. J. Pharmacol., 237: 117-126.
Sigma 1 receptor binding was determined by a radioligand method using tritium-labelled DTG (8 nM) as substrate (Shirayama et al., 1993). Ligand radioactivity was determined by liquid scintillation counting. For sigma binding evaluation, ligand incubations were carried out for one hundred twenty minutes at 22° C. The experiments were conducted in duplicate.
The specific ligand binding to the sigma receptors was defined as the difference between the total binding and the non specific binding determined in presence of an excess of unlabelled ligand. […]

For COc1cc2c(c(OC)c1-c1ccccc1)C(c1cccc(C(N)=O)c1)=NCC(=O)N2C [Compound 17, 3-(6,8-Dimethoxy-1-methyl-2-oxo-7-phenyl-2,3-dihydro-1H-benzo[e][1,4]diazepin-5-yl)-benzamide], the “PDE1 percentage inhibition at 10 μM” value (PDE1; 10 μM compound) was 22%, the IC50 (PDE1; value in square brackets) was 37 µM and the inhibition at 10 µM (PDE5; 10 μM compound, read-out: PDE5 percentage inhibition at 10 μM) was 22%. The IC50 (PDE5; value in square brackets) was 42 µM, the “σ (non-selective) percentage inhibition at 0.1 μM” value ([1]; 0.1 μM) was 1% and the “σ (non-selective) percentage inhibition at 1 μM” value ([1]; 1 μM) was 57%. The “σ (non-selective) percentage inhibition at 10 μM” value ([1]; 10 μM) was 100%.
